Laboratory results: patent publication US20070027130A1, “Tricyclic 6-alkylidene-penem beta-lactamase inhibitors and beta-lactam antibiotic combination: a broad spectrum antibiotic” (priority 2005, published 2007)
In brackets after ≈: the same amount, converted by molar mass.

Legend:
Assay in all cases: MIC microbroth dilution
Assay type in all cases: cell-based
[1] = test system: A. baumannii GC 7692 TEM-1, AmpC; details: Acinetobacter baumannii, 18 h, read-out: Minimal Inhibitory Concentration
Outline: (§1)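 Antibiotics were serially diluted in Mueller-Hinton II broth following the NCCLS microdilution standard, inoculated, then held at 35 C in ambient air for 18-22 hours.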

[2] = test system: C. freundii GC 4164 Inducible AmpC; details: Citrobacter freundii, β-lactamase class C, MHBII, 35° C. 18 hr, read-out: Minimal Inhibitory Concentration
Outline: as §1

[3] = test system: E. coli GC 2149 (ACT-1; TEM-1 + pl 5.6); details: Escherichia coli, β-lactamase class A, A (ESBL), C, MHBII, 35° C. 18 hr, read-out: Minimal Inhibitory Concentration
Outline: as §1

[4] = test system: E. coli GC 2805 (CcrA); details: Escherichia coli, 18 h, read-out: Minimal Inhibitory Concentration
Outline: as §1

[5] = test system: K. oxytoca GC 7627 TEM-1 K1 KPC-2; details: Klebsiella oxytoca, 18 h, read-out: Minimal Inhibitory Concentration
Outline: as §1

[6] = test system: K. pn GC 1963 (TEM-10 + SHV-1 + SHV-ESBL); details: Klebsiella pneumoniae, β-lactamase class A, MHBII, 35° C. 18 hr, read-out: Minimal Inhibitory Concentration
Outline: as §1

[7] = test system: K. pn GC 3104 (MIR-1 + TEM-1); details: Klebsiella pneumoniae, β-lactamase class A, C, MHBII, 35° C. 18 hr, read-out: Minimal Inhibitory Concentration
Outline: as §1

[8] = test system: P. aeruginosa GC 1764 (AmpC); details: Pseudomonas aeruginosa, β-lactamase class C, MHBII, 35° C. 18 hr, read-out: Minimal Inhibitory Concentration
Outline: as §1

[9] = test system: P. aeruginosa PT 8411 PTZ-R*; details: Pseudomonas aeruginosa; P. aeruginosa PT 8411, piperacillin-tazobactam-resistant; MHBII, 35° C. 18 hr; read-out: Minimal Inhibitory Concentration
Outline: as §1

[10] = test system: S. marcescens GC 4132 (AmpC); details: Serratia marcescens, β-lactamase class C, MHBII, 35° C. 18 hr, read-out: Minimal Inhibitory Concentration
Outline: as §1

`CO/N=C(\C(=O)N[C@@H]1C(=O)N2C(C(=O)[O-])=C(C[N+]3(C)CCCC3)CS[C@H]12)c1csc(N)n1` [Cefepime] was tested, and the MIC [1] was > 16 µg/mL, the MIC [2] was 2 µg/mL (≈ 4.16 µM) and the MIC [3] was 16 µg/mL (≈ 33.3 µM). For the same compound, the MIC [4] was > 16 µg/mL, the MIC [5] was > 16 µg/mL and the MIC [6] was > 16 µg/mL. The MIC [7] was 1 µg/mL (≈ 2.08 µM), the MIC [8] was 8 µg/mL (≈ 16.6 µM) and the MIC [9] was 16 µg/mL. It also gave an MIC [10] of 0.5 µg/mL (≈ 1.04 µM).
